According to patent EP4741401A1, “BENZOTHIAZOIMIDAZOLYL COMPOUND AND USE THEREOF” (ER Stress Research Institute, Inc., priority 2023, dated 2025):

How the values were obtained:
[1] = test system: endoplasmic reticulum stress response induced by Tm; test: Suppression of endoplasmic reticulum stress response (ERSE2-UPRE-AARE-EGFP reporter fluorescence); type: cell-based; details: 293A reporter cells, incubated at 37°C overnight, read-out: Suppression rank of endoplasmic reticulum stress response
Procedure: A solution of the compound synthesized in "(1) Synthesis of benzothiazoimidazolyl compound" was appropriately diluted with a DMEM solution containing 10% fetal bovine serum (FBS), and the diluted solution was added to a 384-well assay plate at 10 µL/well. Next, 30 µL of a culture medium containing the reporter cells and 10 µL of the Tm solution were mixed, and the mixture was added to the 384-well assay plate at 40 µL/well such that the cell density was 18 × 10^3 cells/well, and the whole was incubated at 37°C overnight.
A multi-plate reader Citation 3 (Bio-Tek) was used to determine the EGFP fluorescence intensity (excitation wavelength: 485 nm, fluorescence wavelength: 528 nm) when the test compound was added. A smaller fluorescence intensity indicates more suppression of the increase in activity of the endoplasmic reticulum stress marker induced by Tm.
A "control" containing the Tm solution and, in place of the test compound solution, an equal volume of DMSO was subjected to the measurement of fluorescence intensity in a similar manner. In addition, a "background" containing a solution prepared in the same manner as for the Tm solution except that no Tm was added and containing, in place of the test compound solution, an equal volume of DMSO was subjected to the measurement of fluorescence intensity in a similar manner.
The fluorescence intensity was determined while the concentration of the test compound was varied, and the 50% effective concentration (IC50) of suppressing the endoplasmic reticulum stress response induced by Tm was calculated.

293A cells = test: Cytoprotection under endoplasmic reticulum stress conditions (Tm-induced cell death); type: cell-based; details: compound concentration inhibiting Tm-induced cell death by 50%, Tm 0.2 µg/mL, reporter cells
Procedure: The reporter cells same as those used in Example 1 were placed in each well of a 96-well assay plate and were treated with Tm at a final concentration of 0.2 µg/mL and the test compound. […]

| Compound | IC50 [1] | IC50 (293A cells) |
| --- | --- | --- |
| COc1ccc(-c2cn3c(n2)sc2cc(S(C)(=O)=O)ccc23)cc1 [IBT-43, 2-(4-methoxyphenyl)-7-(methylsulfonyl)benzo[d]imidazo[2,1-b] thiazole] | 100 to 1000 nM | 170 nM |
| CC(C)(C)OC(=O)NCCCOc1cc(-c2cn3c(n2)sc2cc(S(C)(=O)=O)ccc23)ccc1Cl [IBT-58, tert-butyl (3-(2-chloro-5-(7-(methylsulfonyl)benzo[d]imidazo[2,1-b]thiazol-2-yl)phenoxy)propyl)carbamate] | > 1000 nM | 3200 nM |
| C#CCNC(=O)CCc1ccc2c(c1)sc1nc(-c3ccc(C(F)(F)F)cc3)cn12 [IBT-57] | > 1000 nM | 3800 nM |
| CC(C)(C)OC(=O)NCCOCCOCCOc1cccc(-c2cn3c(n2)sc2cc(S(C)(=O)=O)ccc23)c1 [IBT-76, tert-butyl (2-(2-(2-(3-(7-(methylsulfonyl)benzo[d]imidazo[2,1-b]thiazol-2-yl)phenoxy)ethoxy)ethoxy)ethyl)carbamate] | > 1000 nM | 4900 nM |
| Cc1ccc2c(c1)sc1nc(-c3ccc(C(F)(F)F)cc3)cn12 [IBT-68, 7-methyl-2-(4-(trifluoromethyl)phenyl)benzo[d]imidazo[2,1-b]thiazole] | 10 to 100 nM | 100 nM |
| CS(=O)(=O)c1ccc2c(c1)sc1nc(-c3ccc(Cl)cc3Cl)cn12 [IBT-44, 2-(2,4-dichlorophenyl)-7-(methylsulfonyl)benzo[d]imidazo[2,1-b]thiazole] | 100 to 1000 nM | 450 nM |
| CS(=O)(=O)c1ccc2c(c1)sc1nc(-c3ccc(Cl)c(Cl)c3)cn12 [IBT-32, 2-(3,4-dichlorophenyl)-7-(methylsulfonyl)benzo[d]imidazo[2,1-b]thiazole] | 10 to 100 nM | 20 nM |
| CC(C)(C)OC(=O)NCCOCCNC(=O)CCc1ccc2c(c1)sc1nc(-c3ccc(C(F)(F)F)cc3)cn12 [IBT-53, tert-butyl (2-(2-(3-(2-(4-(trifluoromethyl)phenyl)benzo[d]imidazo[2,1-b]thiazol-7-yl)propanamido)ethoxy)ethyl)carbamate] | > 1000 nM | 4470 nM |
| FC(F)(F)c1ccc(-c2cn3c(n2)sc2c(Br)cccc23)cc1 [IBT-72, 8-bromo-2-(4-(trifluoromethyl)phenyl)benzo[d]imidazo[2,1-b]thiazole] | 100 to 1000 nM | 630 nM |
| CC(C)(C)OC(=O)NCCCOc1ccc(-c2cn3c(n2)sc2cc(S(C)(=O)=O)ccc23)cc1 [IBT-66, tert-butyl (3-(4-(7-(methylsulfonyl)benzo[d]imidazo[2,1-b]thiazol-2-yl)phenoxy)propyl)carbamate] | 100 to 1000 nM | 830 nM |
| CS(=O)(=O)c1ccc2c(c1)sc1nc(-c3ccc(C(F)(F)F)cc3)cn12 [IBT-31, 7-(methylsulfonyl)-2-(4-(trifluoromethyl)phenyl)benzo[d]imidazo[2,1-b]thiazole] | ≤ 10 nM | 10 nM |
| COc1cccc(-c2cn3c(n2)sc2cc(S(C)(=O)=O)ccc23)c1 [IBT-33, 2-(3-methoxyphenyl)-7-(methylsulfonyl)benzo[d]imidazo[2,1-b]thiazole] | 10 to 100 nM | 70 nM |
| CNC(=O)CCCS(=O)(=O)c1ccc2c(c1)sc1nc(-c3ccc(C(F)(F)F)cc3)cn12 [IBT-38, N-methyl-4-((2-(4-(trifluoromethyl)phenyl)benzo[d]imidazo[2,1-b]thiazol-7-yl)sulfonyl)butanamide] | 10 to 100 nM | 90 nM |
| CCOc1ccc2c(c1)sc1nc(-c3ccc(Cl)cc3)cn12 [IBT-46, 2-(4-chlorophenyl)-7-ethoxybenzo[d]imidazo[2,1-b]thiazole] | 100 to 1000 nM | 560 nM |
| OCc1ccc2c(c1)sc1nc(-c3ccc(Cl)cc3)cn12 [IBT-59, (2-(4-chlorophenyl)benzo[d]imidazo[2,1-b]thiazol-7-yl)methanol] | 100 to 1000 nM | 410 nM |
| C#CCOc1ccc(-c2cn3c(n2)sc2cc(S(C)(=O)=O)ccc23)cc1 [IBT-41, 7-(methylsulfonyl)-2-(4-(prop-2-yn-1-yloxy)phenyl)benzo[d]imidazo[2,1-b]thiazole 2,2,2-trifluoroacetate] | 10 to 100 nM | 90 nM |
| CC(C)(C)OC(=O)NCCOCCNC(=O)CCc1cccc2c1sc1nc(-c3ccc(C(F)(F)F)cc3)cn12 [IBT-74, tert-butyl (2-(2-(3-(2-(4-(trifluoromethyl)phenyl)benzo[d]imidazo[2,1-b]thiazol-8-yl)propanamido)ethoxy)ethyl)carbamate] | > 1000 nM | 3700 nM |
| C#CCCC1(CCNC(=O)CCc2cccc3c2sc2nc(-c4ccc(C(F)(F)F)cc4)cn23)N=N1 [IBT-73, N-(2-(3-(but-3-yn-1-yl)-3H-diazirin-3-yl)ethyl)-3-(2-(4-(trifluoromethyl)phenyl)benzo[d]imidazo[2,1-b]thiazol-8-yl)propanamide 2,2,2-trifluoroacetate] | > 1000 nM | 8400 nM |
| CCCc1ccc(-c2cn3c(n2)sc2cc(S(C)(=O)=O)ccc23)cc1 [IBT-67, 7-(methylsulfonyl)-2-(4-propylphenyl)benzo[d]imidazo[2,1-b]thiazole] | 100 to 1000 nM | 370 nM |
| COc1cc(-c2cn3c(n2)sc2cc(S(C)(=O)=O)ccc23)ccc1Cl [IBT-36, 2-(4-chloro-3-methoxyphenyl)-7-(methylsulfonyl)benzo[d]imidazo[2,1-b]thiazole] | ≤ 10 nM | 10 nM |
| CS(=O)(=O)c1ccc2c(c1)sc1nc(-c3ccc(F)cc3)cn12 [IBT-34, 2-(4-fluorophenyl)-7-(methylsulfonyl)benzo[d]imidazo[2,1-b]thiazole] | 10 to 100 nM | 80 nM |
| C#CCCC1(CCNC(=O)CCc2ccc3c(c2)sc2nc(-c4ccc(C(F)(F)F)cc4)cn23)N=N1 [IBT-61, N-(2-(3-(but-3-yn-1-yl)-3H-diazirin-3-yl)ethyl)-3-(2-(4-(trifluoromethyl)phenyl)benzo[d]imidazo[2,1-b]thiazol-7-yl)propanamide] | > 1000 nM | 4160 nM |
| CCN(CC)C(=O)CCCS(=O)(=O)c1ccc2c(c1)sc1nc(-c3ccc(C(F)(F)F)cc3)cn12 [IBT-55, N,N-diethyl-4-((2-(4-(trifluoromethyl)phenyl)benzo[d]imidazo[2,1-b]thiazol-7-yl)sulfonyl)butanamide] | 100 to 1000 nM | 660 nM |
| CNC(=O)CCc1ccc2c(c1)sc1nc(-c3ccc(Cl)cc3)cn12 [IBT-35, 3-(2-(4-chlorophenyl)benzo[d]imidazo[2,1-b]thiazol-7-yl)-N-methylpropanamide] | 10 to 100 nM | 40 nM |
| COc1cccc2sc3nc(-c4ccc(Cl)cc4)cn3c12 [IBT-51, 2-(4-chlorophenyl)-5-methoxybenzo[d]imidazo[2,1-b]thiazole] | > 1000 nM | 7720 nM |
| CNC(=O)CCc1ccc2c(c1)sc1nc(-c3ccc(C(F)(F)F)cc3)cn12 [IBT-37, N-methyl-3-(2-(4-(trifluoromethyl)phenyl)benzo[d]imidazo[2,1-b]thiazol-7-yl)propanamide] | 10 to 100 nM | 30 nM |
| C#CCOc1cc(-c2cn3c(n2)sc2cc(S(C)(=O)=O)ccc23)ccc1Cl [IBT-56, 2-(4-chloro-3-(prop-2-yn-1-yloxy)phenyl)-7-(methylsulfonyl)benzo[d]imidazo[2,1-b]thiazole] | 100 to 1000 nM | 560 nM |
